Literature values, collected in PMC3461336 (Biomacromolecules, 2012).

Settings: without dpA3

PAX solubility in aqueous solvents: < 0.1 µg/mL
Structure (SMILES): CC(=O)O[C@H]1C(=O)[C@@]2(C)[C@H]([C@H](OC(=O)c3ccccc3)[C@]3(O)C[C@H](OC(=O)[C@H](O)[C@@H](NC(=O)c4ccccc4)c4ccccc4)C(C)=C1C3(C)C)[C@]1(OC(C)=O)CO[C@@H]1C[C@@H]2O [PAX, Paclitaxel]
